Measurements published in article PMC11867108, “Design and application of a fluorescent probe for imaging of endogenous Bruton's tyrosine kinase with preserved enzymatic activity” (RSC Chemical Biology, 2025).
pIC50: −log10 of the molar value.

Assays:
[1] = target: T1, Bruton's tyrosine kinase (BTK) (Homo sapiens, UniProt Q06187); experiment: in-gel fluorescence under denaturing conditions (covalent labelling); ADP-Glo IC50; assay type: biochemical
T1 construct: full-length recombinant BTK

[2] = target: T1, Bruton's tyrosine kinase (BTK); experiment: LC-MS/MS of tryptic peptide […]-487 and in-gel fluorescence; ADP-Glo IC50; immunoprecipitation from Ramos cells; assay type: biochemical

T1 sequence (Q06187 2-659): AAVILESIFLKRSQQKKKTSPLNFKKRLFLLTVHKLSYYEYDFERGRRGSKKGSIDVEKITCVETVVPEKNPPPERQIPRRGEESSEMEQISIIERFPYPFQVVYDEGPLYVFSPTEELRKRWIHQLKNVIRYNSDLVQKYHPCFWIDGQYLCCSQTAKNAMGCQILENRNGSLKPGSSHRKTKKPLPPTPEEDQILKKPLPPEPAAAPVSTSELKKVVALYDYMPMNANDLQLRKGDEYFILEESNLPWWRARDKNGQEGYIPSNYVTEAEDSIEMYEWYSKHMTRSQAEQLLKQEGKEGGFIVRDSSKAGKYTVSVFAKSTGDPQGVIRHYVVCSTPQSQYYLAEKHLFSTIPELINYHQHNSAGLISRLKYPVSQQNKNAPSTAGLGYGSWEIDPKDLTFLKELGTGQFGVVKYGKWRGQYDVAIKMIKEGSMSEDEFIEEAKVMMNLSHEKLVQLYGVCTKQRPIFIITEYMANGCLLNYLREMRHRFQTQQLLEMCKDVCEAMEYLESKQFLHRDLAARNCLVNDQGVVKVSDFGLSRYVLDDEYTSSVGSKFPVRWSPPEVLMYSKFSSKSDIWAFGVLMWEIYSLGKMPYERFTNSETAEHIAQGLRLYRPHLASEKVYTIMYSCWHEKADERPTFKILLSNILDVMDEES

| SMILES | pIC50 [1] | pIC50 [2] |
| --- | --- | --- |
| C=C(CN1CCC(CNc2ncnc(N)c2-c2ccc(Oc3ccccc3)cc2)CC1)C(=O)NCCNC(=O)CCC1=[N+]2C(=Cc3c(C)cc(C)n3[B-]2(F)F)C=C1 [Evo-1] | 5.12 | – |
| C=C(CN1CCC(CNc2ncnc(N)c2-c2ccc(Oc3ccccc3)cc2)CC1)C(=O)N1CCC(NC(=O)CCC2=[N+]3C(=Cc4c(C)cc(C)n4[B-]3(F)F)C=C2)CC1 [Evo-2] | – | < 5.00 |
